Reference: ChEMBL document CHEMBL3885881, “DrugMatrix”

Species: Rattus norvegicus
Experiment: DrugMatrix - Regimen: Daily Repeat
Type: toxicity, organism-based, Sprague-Dawley
Parameters: regimen Daily Repeat, gender Male, age 6-8 weeks
Details: in vivo, sc, route subcutaneous, […]; for SODIUM / TOTAL BILIRUBIN / TOTAL PROTEIN / URIC ACID / ALANINE AMINOTRANSFERASE / ALBUMIN / ALKALINE PHOSPHATASE / ASPARTATE AMINOTRANSFERASE / BLOOD UREA NITROGEN / CARBON DIOXIDE / CHLORIDE / CHOLESTEROL / CREATINE PHOSPHOKINASE / CREATININE / GLUCOSE / LACTATE DEHYDROGENASE / LIPASE / PHOSPHORUS / POTASSIUM: tissue Plasma; for ABSOLUTE BASOPHIL / ABSOLUTE EOSINOPHIL / ABSOLUTE LYMPHOCYTE / ABSOLUTE MONOCYTE / ABSOLUTE SEGMENTED NEUTROPHIL / BASOPHIL / EOSINOPHIL / ERYTHROCYTE COUNT / HEMATOCRIT / HEMOGLOBIN / LEUKOCYTE COUNT / LYMPHOCYTE / MEAN CORPUSCULAR HEMOGLOBIN / MEAN CORPUSCULAR HEMOGLOBIN CONCENTRATION / MEAN CORPUSCULAR VOLUME / MONOCYTE / NEUTROPHIL / NUCLEATED RED BLOOD CELLS / PLATELET COUNT: tissue Blood
[1] = 2 mg/kg, 120 h, dose level M2, time 5 day
[2] = 25 mg/kg, 72 h, dose level High, time 3 day
[3] = 25 mg/kg, 120 h, dose level High, time 5 day

C[C@]12CC[C@@H]3c4ccc(OC(=O)c5ccccc5)cc4CC[C@H]3[C@@H]1CC[C@@H]2O [ESTRADIOL BENZOATE]
SODIUM [1]: 141.87 MEQ/L | TOTAL BILIRUBIN [1]: 0.13 mg/dL | TOTAL PROTEIN [1]: 5.93 G/DL | URIC ACID [1]: 2.07 mg/dL | ABSOLUTE BASOPHIL [2]: 0 CELLS/uL | ABSOLUTE EOSINOPHIL [2]: 0 CELLS/uL | ABSOLUTE LYMPHOCYTE [2]: 7876 CELLS/uL | ABSOLUTE MONOCYTE [2]: 263 CELLS/uL | ABSOLUTE SEGMENTED NEUTROPHIL [2]: 1061 CELLS/uL | BASOPHIL [2]: 0% | EOSINOPHIL [2]: 0% | ERYTHROCYTE COUNT [2]: 5.97 x10E6/uL | HEMATOCRIT [2]: 37% | HEMOGLOBIN [2]: 13.8 G/DL | LEUKOCYTE COUNT [2]: 9.2 x10E3/uL | LYMPHOCYTE [2]: 86% | MEAN CORPUSCULAR HEMOGLOBIN [2]: 23.2 pg | MEAN CORPUSCULAR HEMOGLOBIN CONCENTRATION [2]: 37.33 G/DL | MEAN CORPUSCULAR VOLUME [2]: 62.1 fL | MONOCYTE [2]: 2.67% | NEUTROPHIL [2]: 11.33% | NUCLEATED RED BLOOD CELLS [2]: 0 /100WBC | PLATELET COUNT [2]: 1341 x10E3/uL | ALANINE AMINOTRANSFERASE [2]: 32.33 u/L | ALBUMIN [2]: 4.13 G/DL | ALKALINE PHOSPHATASE [2]: 479.33 u/L | ASPARTATE AMINOTRANSFERASE [2]: 66.67 u/L | BLOOD UREA NITROGEN [2]: 10.33 mg/dL | CARBON DIOXIDE [2]: 29 mmol/L | CHLORIDE [2]: 101.33 MEQ/L | CHOLESTEROL [2]: 26.67 mg/dL | CREATINE PHOSPHOKINASE [2]: 407.67 u/L | CREATININE [2]: 0.16 mg/dL | GLUCOSE [2]: 188.67 mg/dL | LACTATE DEHYDROGENASE [2]: 154.67 u/L | LIPASE [2]: 7.33 u/L | PHOSPHORUS [2]: 11.1 mg/dL | POTASSIUM [2]: 5.86 MEQ/L | SODIUM [2]: 141.4 MEQ/L | TOTAL BILIRUBIN [2]: 0.1 mg/dL | TOTAL PROTEIN [2]: 5.73 G/DL | URIC ACID [2]: 2 mg/dL | ABSOLUTE BASOPHIL [3]: 0 CELLS/uL | ABSOLUTE EOSINOPHIL [3]: 23.33 CELLS/uL | ABSOLUTE LYMPHOCYTE [3]: 7006.67 CELLS/uL | ABSOLUTE MONOCYTE [3]: 182 CELLS/uL | ABSOLUTE SEGMENTED NEUTROPHIL [3]: 921.33 CELLS/uL | BASOPHIL [3]: 0% | EOSINOPHIL [3]: 0.33% | ERYTHROCYTE COUNT [3]: 5.89 x10E6/uL | HEMATOCRIT [3]: 35% | HEMOGLOBIN [3]: 13.6 G/DL | LEUKOCYTE COUNT [3]: 8.13 x10E3/uL | LYMPHOCYTE [3]: 86.33% | MEAN CORPUSCULAR HEMOGLOBIN [3]: 23.13 pg | MEAN CORPUSCULAR HEMOGLOBIN CONCENTRATION [3]: 38.9 G/DL | MEAN CORPUSCULAR VOLUME [3]: 59.43 fL | MONOCYTE [3]: 2.67% | NEUTROPHIL [3]: 10.67% | NUCLEATED RED BLOOD CELLS [3]: 0 /100WBC | PLATELET COUNT [3]: 988.67 x10E3/uL | ALANINE AMINOTRANSFERASE [3]: 53 u/L | ALBUMIN [3]: 5.07 G/DL | ALKALINE PHOSPHATASE [3]: 360 u/L | ASPARTATE AMINOTRANSFERASE [3]: 106.33 u/L | BLOOD UREA NITROGEN [3]: 14 mg/dL | CARBON DIOXIDE [3]: 27.33 mmol/L | CHLORIDE [3]: 98.67 MEQ/L | CHOLESTEROL [3]: 32.67 mg/dL | CREATINE PHOSPHOKINASE [3]: 366.33 u/L | CREATININE [3]: 0.19 mg/dL | GLUCOSE [3]: 130.67 mg/dL | LACTATE DEHYDROGENASE [3]: 223.33 u/L | LIPASE [3]: 7.67 u/L | PHOSPHORUS [3]: 11.37 mg/dL | POTASSIUM [3]: 5.61 MEQ/L
